Where no end group is shown, it is not given here.

Assay [1] concerns human neutrophils. The assay is described as follows: Intracellular calcium mobilization (fura-2) in human neutrophils. The assay is classed as cell-based. The conditions noted are these: 1 M peptide. As for the experimental part: Neutrophils were stimulated with 1 μM of PACAP27 (SEQ ID NO:1), PACAP38 (SEQ ID NO:2), or VIP (SEQ ID NO:3), and calcium concentrations were measured for 10 min. In order to measure EKR phosphorylation, each peptide hormones was used with 1 μM concentrations for 5 min. For cAMP measurement, each peptide hormones was used with 1 μM concentrations for 10 min.
(§1) Intracellular calcium concentrations ([Ca^2+]i) were determined using Grynkiewicz's method with fura-2/AM, as described in “Grynkiewicz, G., M. Poenie, and R. Y. Tsien. 1985. […] J. Biol. Chem. 260:3440-3450”. Briefly, the cells prepared in Example 1.2 were incubated with 3 µM fura-2/AM at 37° C. for 50 minutes in fresh serum free RPMI 1640 medium with continuous stirring. The incubated cells (2×10^6) were aliquoted for each assay in Ca^2+-free Locke's solution (154 mM NaCl, 5.6 mM KCl, 1.2 mM MgCl2, 5 mM HEPES (pH 7.3), 10 mM glucose, and 0.2 mM EGTA). Fluorescence changes at 340 and 380 nm using a common emission wavelength of 500 nm were measured, and fluorescence ratios were converted to [Ca2+]i, as described in above Grynkiewicz, G. et al.
In general terms: Calcium flux is commonly read through the fluorescence of an indicator in the cells.

Assay [2] deals with T1, formyl peptide receptor-like 1 (FPRL1) (human, UniProt P25090 1-351).
T1 construct: in the other assays endogenous on human neutrophils, monocytes, synoviocytes (FLS, MH7A) or HUVECs; also called FPRL1/RBL; lipoxin A4 receptor (LXA4R)
T1 sequence: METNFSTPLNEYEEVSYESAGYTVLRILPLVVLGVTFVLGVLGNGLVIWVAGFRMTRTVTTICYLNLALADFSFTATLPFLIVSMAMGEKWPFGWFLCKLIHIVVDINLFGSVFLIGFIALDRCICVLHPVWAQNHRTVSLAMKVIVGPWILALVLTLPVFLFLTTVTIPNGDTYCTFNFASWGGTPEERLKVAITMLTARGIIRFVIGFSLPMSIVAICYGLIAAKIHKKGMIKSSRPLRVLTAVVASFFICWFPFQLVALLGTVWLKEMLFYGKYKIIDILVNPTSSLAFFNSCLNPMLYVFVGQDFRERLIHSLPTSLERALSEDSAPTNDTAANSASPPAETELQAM
The assay is described as follows: cell-based or functional assay.

For assay [3], the target named is T2, FPRL1 (Homo sapiens, UniProt P25090).
T2 construct: expressed in transfected cells
T2 sequence (P25090 1-351): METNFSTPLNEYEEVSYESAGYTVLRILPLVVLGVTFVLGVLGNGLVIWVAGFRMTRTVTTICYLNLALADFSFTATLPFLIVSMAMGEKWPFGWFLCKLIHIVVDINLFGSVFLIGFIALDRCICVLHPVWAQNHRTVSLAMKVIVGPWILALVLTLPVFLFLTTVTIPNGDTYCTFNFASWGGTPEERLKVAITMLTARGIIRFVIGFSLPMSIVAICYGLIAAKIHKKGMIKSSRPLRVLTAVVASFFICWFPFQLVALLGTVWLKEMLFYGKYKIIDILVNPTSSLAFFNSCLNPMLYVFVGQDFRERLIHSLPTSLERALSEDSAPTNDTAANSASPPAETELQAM
The assay is described as follows: Intracellular calcium mobilization (fura-2) in FPRL1/RBL cells. The class given is cell-based. As for the experimental part:
FPRL1-expressing rat basophile leukemia (RBL)-2H3 (FPRL1/RBL), FPR-expressing RBL-2H3 (FPR/RBL), and vector-transfected RBL-2H3 (vector/RBL) were donated by Dr. Richard D. Ye (University of Illinois). FPRL1/RBL, FPR/RBL, and vector/RBL were maintained at 37° C. in a humidified 5% CO2 atmosphere in high glucose DMEM supplemented with 20% (vol/vol) heat-inactivated fetal calf serum and G418 ([…]). FPRL1/RBL, FPR/RBL, and vector/RBL were sub-cultured every three days. The prepared cells were used in the following examples.
as §1

The target in assay [4] is T2, FPRL1. The assay is described as follows: Ligand binding analysis, 125I-labeled PACAP27 on FPRL1/RBL cells. The following applies: compared with PACAP27. On the procedure:
The ligand binding analysis was performed as described in “Bae, Y. S., H. Y. Lee, E. J. Jo, J. I. Kim, H. K. Kang, R. D. Ye, J. Y. Kwak, and S. H. Ryu. 2004. J. Immunol. 173:607-614”. Briefly, FPRL1/RBL cells were seeded at 1×10^5 cells/well onto a 24 well plate and cultured overnight. After blocking them with blocking buffer (33 mM HEPES, pH 7.5, 0.1% BSA in RPMI 1640 medium) for 2 hours, 50 pM of ^125I-labeled PACAP27 (Perkin-Elmer, Boston, Mass.) was added to the cells in binding buffer (PBS containing 0.1% BSA), in the presence of the test peptides (cold PACAP27 (SEQ ID NO:1), truncated-PACAPs, and chimeric PACAPs), and then incubated for 3 hours at 4° C. with continuous shaking. The cells were then washed 5 times with ice-cold binding buffer, and 200 µL of lysis buffer (20 mM Tris, pH 7.5, 1% Triton X-100) was added to each well for 20 minutes at room temperature. Lysates were then collected and counted using a γ-ray counter.

For assay [5], the system named is human neutrophils. The assay is described as follows: FACS analysis of surface CD11b expression on neutrophils. The class given is cell-based. The conditions noted are these: 1 μM or 10 μM, 1 hour. On the procedure: Purified neutrophils were incubated with indicated concentration of PACAP27 (SEQ ID NO:1) for 1 hour. Cells (2×10^5/assay) were washed with FACS buffer (PBS containing 1% BSA and 0.1% sodium azide), incubated with human AB type serum for 10 minutes on ice, and stained with PE-labeled human CD11b antibody (BD PharMingen, San Diego, Calif.). They were then analyzed using a FACSCalibur system (BD Biosciences, San Jose, Calif.), as described in “Harfi, I., S. D'Hondt, F. Corazza, and E. Sariban. 2004. J. Immunol. 173:4154-4163”.

Assay [6] concerns HUVECs. The assay is described as follows: HUVEC wounding migration assay. The class given is cell-based, human. The following applies: SAA 5 μM, WKYMVm 10 nM, VEGF 20 ng/ml; 12 h. As for the experimental part: […] After 12 h of incubation, migration was quantitated via counts of the cells migrating beyond the reference line. For the tube formation assay, the HUVECs were seeded on a layer of previously polymerized Matrigel (BD Biosciences) with SAA (SEQ ID NO:19) (5 μg/ml), WKYMVm (SEQ ID NO:5) peptide (10 nM), a specific ligand for FPRL1 (32, 33) or VEGF (20 ng/ml). After 18 h of incubation, the cell morphology was visualized via phase-contrast microscopy and photographed.

The test system of assay [7] is RA FLS. In words: Cell proliferation assay ([3H]-thymidine incorporation, cell counts) in RA FLS. The following applies: SAA 5 μM, 72 h, PTX 100 ng/ml, U73122 1 μM, PD98059 50 μM, LY294002 50 μM. The class given is cell-based, human. As for the experimental part: Fibroblast-like synoviocytes (FLS) were prepared from synovial samples obtained from patients suffering from RA and osteoarthritis (OA), all of whom were also undergoing total joint replacement surgery. The FLS were isolated from the synovial tissues in accordance with a previously described procedure (Cho, C. S., M. L. Cho, S. Y. Min, W. U. Kim, D. J. Min, S. S. Lee, S. H. Park, J. Choe, and H. Y. Kim. 2000. CD40 engagement on synovial fibroblast up-regulates production of vascular endothelial growth factor. J. Immunol. 164: 5055-5061).
In brief, fresh synovial tissues were minced into 2- to 3-mm pieces, then treated for 4 h with 4 mg/ml type I collagenase (Worthington Biochemical), and maintained in Dulbecco's Modified Eagle's Medium (DMEM) containing 10% FBS at 37° C. in an atmosphere containing 5% CO2. […] MH7A cells, the immortalized synoviocytes that harbor the SV40 T antigen, were grown in DMEM supplemented with 10% FBS, as previously described (Miyazawa, K, A. Mori, and H. Okudaira. 1998. Establishment and characterization of a novel human rheumatoid fibroblast-like synoviocyte line, MH7A, immortalized with SV40T antigen. J. Biochem. 124: 1153-1162), and then employed in some of the experiments. Human umbilical vein endothelial cells (HUVECs) were isolated from fresh human umbilical cords via collagenase (Worthington Biochemical) digestion, and then maintained in 20% FBS-containing M-199 medium (Sigma, St. Louis, Mo.), as previously described. All HUVECs were used after no more than five passages.
The RA FLS, OA FLS, and HUVECs were plated onto 24-well culture dishes at a density of 2×10^4 cells/well, and then permitted to attach overnight. After 24 h of serum starvation, the cells were treated for 72 h with a variety of mitogens. [^3H]-thymidine (1 μCi) was added to each of the wells prior to the final 6 h of incubation. Cell growth was also evaluated via cell counts. Control and mitogen-treated cells were harvested by trypsinization, and the number of cells was determined with a hemocytometer, under ×100 magnification.

Assay [8] deals with T1, formyl peptide receptor-like 1 (FPRL1). The assay is described as follows: displacement of 125I-PACAP27 by unlabeled peptide on FPRL1/RBL cells. (Loss of bound radioactivity is the signal in a displacement assay; it reports binding, not function.)

Regarding “PACAP38: pituitary adenylate cyclase-activating polypeptide, 38 amino acids, SEQ ID NO:2 (HSDGIFTDSYSRYRKQMAVKKYLAAVLGKRYKQRVKNK; ends and bridges not checked; listed as Homo sapiens)”, the “[Ca2+]i increase in human neutrophils” value in assay [1] is “neither PACAP38 (SEQ ID NO:2) nor VIP (SEQ ID NO:3) increased [Ca2+]i”. For the molecule “Serum amyloid A (SAA) (from UniProt P0DJI8 19-94) (ligand)”, the intracellular Ca2+ in RA FLS (Fluo-3, calcium imaging), SAA 3 µM in assay [2] turned out to be 2.3 fold. Regarding “VIP: vasoactive intestinal peptide, SEQ ID NO:3”, in assay [1], the “[Ca2+]i increase in human neutrophils” value was “neither PACAP38 (SEQ ID NO:2) nor VIP (SEQ ID NO:3) increased [Ca2+]i”. Moreover, the “[Ca2+]i increase / activation of FPRL1” value in assay [3] was “does not interact with FPRL1”. On to “tPACAP9-27: truncated PACAP27, SEQ ID NO:7 (SYSRYRKQMAVKKYLAAVL; ends and bridges not checked; listed as Homo sapiens)”, for which, in assay [4], the “binding affinity to FPRL1 (in words)” value is reported as “almost the same binding affinity as PACAP27”. Also, the “[Ca2+]i increase / activation of FPRL1” value in assay [3] is recorded as “partially activate”. Take “boiled PACAP27: PACAP27 heat-inactivated for 10 minutes in boiling water (HSDGIFTDSYSRYRKQMAVKKYLAAVL; not fully specified; ends and bridges not checked; listed as Homo sapiens)”: the “CD11b up-regulation compared with PACAP27” value in assay [5] is reported as “no difference”. In the case of VEGF, the “migratory activity of HUVECs relative to control cells” value in assay [6] is “approximately 3 times”. For the molecule `COc1cccc(-c2cc(=O)c3ccccc3o2)c1N` [PD98059], the “blockage of the proliferative and anti-apoptotic activities of SAA” value in assay [7] is given as “almost complete blockage”. Still for that read-out and setting: the result for `COc1ccc2c(c1)CC[C@@H]1[C@@H]2CC[C@]2(C)[C@@H](NCCCCCCN3C(=O)C=CC3=O)CC[C@@H]12` [U73122] reads “almost complete blockage”. As to “polymyxin b-treated PACAP27: PACAP27 pretreated with 5 μM polymyxin b for 1 hour in 37° C. (HSDGIFTDSYSRYRKQMAVKKYLAAVL; not fully specified; ends and bridges not checked; listed as Homo sapiens)”, the “CD11b up-regulation compared with PACAP27” value in assay [5] is listed as “no difference”.

B1: tPACAP9-27 (truncated PACAP) (peptide)
peptide: SYSRYRKQMAVKKYLAAVL
modifications: ends and bridges not checked
notes: Synthetic truncation of PACAP27; the range is counted on PACAP27, by the peptide's name
Take B1: the binding result in assay [8] is “binds”.

B2: cPACAP9VIP (chimeric PACAP) (peptide)
peptide: HSDGIFTDNYSRYRKQMAVKKYLAAVL
modifications: ends and bridges not checked
notes: PACAP27 with the VIP residue at position 9; bought from GenScript
Molecule B2 had a Kd in assay [8] of 51.2 nM. That is a double-digit nanomolar value.

B3: cPACAP13VIP (chimeric PACAP) (peptide)
peptide: HSDGIFTDSYSRLRKQMAVKKYLAAVL
modifications: ends and bridges not checked
notes: PACAP27 with the VIP residue at position 13; bought from GenScript
Molecule B3 had an equilibrium dissociation constant (Kd) in assay [8] of 51.2 nM. This lies in the double-digit nanomolar range.

One may read the Kd as a measure of binding affinity in units of concentration. Read a low Kd as tighter binding.

The values above are taken from US20100291089A1, “LIGAND OF REGULATING IMMUNE RESPONSE, AND USE THEREOF IN TREATING AN IMMUNE RESPONSE-RELATED DISEASE” (POSTECH ACADEMY-INDUSTRY FOUNDATION, priority 2005, published 2010).
